Assay results from US8975259B2, “Compositions and methods for inhibiting G protein signaling” (University of Rochester, priority 2007, dated 2015).
Entries after “also recorded” stand apart in the source; their conditions may differ. Read-outs that look alike come from different tables or passages of the source.

Key:
[1] = test system: differentiated HL60 cells; experiment: fMLP-induced chemotaxis of differentiated HL60 cells (Boyden chamber); type: cell-based, human; details: 10 μM compound, 250 nM fMLP; result in words
Experimental: Same as A with purified human neutrophils.
Differentiated HL60 cells (200 k) were pretreated with 10 μM concentrations of the indicated compound, challenged with 250 nM fMLP, and assayed for chemotaxis in a Boyden chamber for 1 h at 37° C. […] Chemotaxis was quantified as above by subtracting out background cells (0-10 cells) in the absence of chemoattractant to obtain total transmigrated cells (−100 cells GM-CSF+vehicle) and represented as the percentage of GM-CSF-treated control cells. No statistically significant difference from control was seen by ANOVA. […] Primary human neutrophils were isolated from whole blood to ≧80% purity. Neutrophils (2×10^5) were pretreated with gallein (10 μM), M119 (10 μM), M119B (10 μM), or wortmannin (wtmn.) (1 μM) and then challenged with 250 nM fMLP or 10 nM IL-8 to evaluate chemotaxis in a Boyden chamber for 1 h at 37° C. […] NS, not statistically different from control. […] Primary human neutrophils were isolated and treated (250 nM fMLP±gallein) as described above. Chemotaxis was quantified as above by subtracting out background cells to obtain total transmigrated cells and represented as the percentage of fMLP-treated control cells. Data shown are pooled from two independent experiments, each in duplicate, ±S.E.M.
Chemotaxis was assayed using a Boyden chamber (Neuro Probe, Gaithersburg, Md.) using 3-μm polyvinylpyrrolidone-free polycarbonate filters (Neuro Probe). HL60 cells (differentiated for 4 days) were washed with and resuspended in HBSS containing 1% bovine serum albumin to a final concentration of 1×10^6 cells/ml. Primary human neutrophils were washed and resuspended in NaCl buffer (140 mM NaCl, 4 mM KCl, 10 mM D-glucose, 10 mM HEPES, pH 7.4, 1 mM MgCl2, and 1 mM CaCl2) to a final concentration of 1×10^6 cells/mi. Chemoattractant [1 μM granulocyte-macrophage-colony stimulating factor (GM-CSF), 10 nM IL-8, or 250 nM fMLP; Sigma Aldrich] was added to the bottom chamber in HBSS containing 1% bovine serum albumin.

Gβ1γ2 = Gβ1γ2 (UniProt P54311+P63212); experiment: Competition phage ELISA: inhibition of SIGK-phage binding to immobilized biotinylated Gβ1γ2; parameters: made in house; host or cells: Sf9 insect cells (baculovirus; co-expressed with BirA and (His)6-Gαi1, from which βγ was eluted); species or system rat
Experimental: Phage ELISA assays used to assess peptide binding to wild-type and mutant b-βγ were performed according to standard methods (Smrcka and Scott (2002) Methods Enzymol. 344:557-76). Briefly, 1 μg streptavidin was immobilized in the well of a […] overnight at 4° C. The wells were blocked with 100 μL of 2% bovine serum albumin (BSA) in Tris-buffered saline (TBS) for 1 hour at 4° C. followed by three washes of IX TBS/0.5% TWEEN®. […] The wells were washed, followed by the addition of IxIO^6 to IxIO^10 phage particles and incubated at 4° C. for 3 hours. The wells were then washed six times with TBS/0.5% TWEEN® followed by addition of 40 μL of 1:5000 dilution of anti-M13 antibody (Pharmacia, Uppsala, Sweden) and incubated at room temperature for 1 hour. The wells were washed, followed by the addition of 40 μL of (2,2′-Azino-bis (3-ethylbenzthiazoline)-6-sulfonic acid (ABTS) and the colorimetric reaction was monitored at 405 nm. Nonspecific binding was subtracted for each reading.
A phage ELISA assay was used to determine whether small molecules identified in the computational screen could interact with the Gβy protein interaction surface. […] The screen was based on a reduction in the optical density (OD) of wells containing Gβγ subunits and phage. […] Three background wells contained no βy subunits.
As disclosed herein, biotinylated Gβy subunits were immobilized on the surface of a 96-well plate coated with streptavidin, phage displaying Gβγ-binding peptides were subsequently added and binding in the presence and absence of test compounds detected with an anti-phage antibody.
The phage ELISA assay was used to rapidly screen the ability of compounds to bind to the protein interaction “hot spot” based on the method of Scott et. al (Scott et al., 2001). This assay is performed in the presence of detergent (0.5% Tween) to eliminate non-specific compound aggregation artifacts.
Compounds/DMSO and 0.1×10^10 phage were added simultaneously and subsequently incubated for 1 h at room temperature. Plates were then washed with 1× Tris-buffered saline/0.5% Tween 20 and incubated with anti-M13, HRP-conjugated antibody (Amersham, Chalfont St. Giles, Buckinghamshire, UK). Phage binding was determined by monitoring A405 upon addition of 2,2′-azino-bis(3-ethylbenzothiazoline-6-sulfonic acid) (Sigma Aldrich).

In the case of `O=C(O)C1CCCCC1c1c2ccc(=O)cc-2oc2cc(O)ccc12` (stereo not drawn) [Compound M119B], the “effect on fMLP-induced chemotaxis” value [1] is reported as “no effect on migration” and the “apparent affinity for Gβ1γ2 relative to M119” value (Gβ1γ2) is reported as 1/1000.
For `O=C(O)C1CCCCC1c1c2ccc(=O)c(O)c-2oc2c(O)c(O)ccc12` (stereo not drawn) [Compound M119, cyclohexanecarboxylic acid, 2-(4,5,6-trihydroxy-3-oxo-3H-xanthen-9-yl)-(9cl)], the “effect on fMLP-induced chemotaxis” value [1] was “significantly blunted migration; also recorded: inhibited”, the IC50 (Gβ1γ2; ELISA, Table 19) was 0.2 µM and the IC50 (Gβ1γ2; IC50 μM, Table 18, compounds identified in Elisa screen) was 0.2 µM. For the same compound, the IC50 (Gβ1γ2; IC50, Table 8, last row) was 0.1 µM and the IC50 (Gβ1γ2; IC50 in phage ELISA (SIGK competition)) was 0.2 µM.
For `O=C(O)c1ccccc1-c1c2ccc(=O)c(O)c-2oc2c(O)c(O)ccc12` (racemic) [Gallein], the “effect on fMLP-induced chemotaxis” value [1] was “inhibited” and the IC50 (Gβ1γ2) was 0.2 µM.
